Data taken from paper PMC7156724, “Potent BRD4 inhibitor suppresses cancer cell-macrophage interaction” (Nature Communications, 2020).
Several values for one entry are separate records, joined by “and”; a condition that tells them apart may be missing. Identical values can stand only once.

What was measured:
ES-2 cells = test: Clonogenic (colony formation) assay, ES-2; assay type: cell-based, human; conditions: ES-2, 250 nM, 5 days
Experimental: Fig. 2 NHWD-870 inhibited BRD4 phosphorylation and c-MYC expression, and suppressed cell growth. a Representative western blot analysis of p-BRD4 (s484/488), BRD4, c-MYC, and GAPDH after treatment of MDA-MB231, SUM159, A2780 ES-2, and H526 cells with JQ-1 or NHWD-870 at the indicated concentrations for 24 h. GAPDH served as the loading control. Selected from three independent experiments. b MTT assays of H526, A2780, ES-2, and MDA-MB231 cells treated with JQ-1 or NHWD-870 at the indicated concentrations for 5 days. Data are presented as mean ± SEM from three independent experiments. c, d Clonogenic assays of H526, A2780, ES-2 and MDA-MB231 cells treated with 250 nM JQ-1 or NHWD-870 for 5 days. Shown are representative images (c) and quantification of colonies (d). […] Shown are representative images (e) and quantification of relative colony sizes (f). Scale bar, 50 μm. Data are presented as mean ± SEM from five independent experiments. p values were calculated using two-tailed, unpaired t tests in this figure. **p < 0.01; ***p < 0.001. Source data are provided as a Source Data file. […]
5. Colony formation assay. Cells were seeded in 6-well plates at 3,000 cells/well […]
every week. […] Colony numbers were calculated with imageJ version

B16F10 mouse melanoma = B16F10 mouse melanoma syngeneic model tumor growth; assay type: in vivo, C57BL/6 mice; conditions: B16F10 mouse melanoma, once daily 11 days, NHWD-870-HCl
Description: PO, oral administration; QD, once daily; BID, twice daily. b–d Tumor growth curves for A2780 ovarian tumor (n = 5) (b), TMD8 large B cell lymphoma (n = 6) (c), and B16F10 melanoma (n = 5) (d) bearing mice treated with the indicated compounds once daily for 11-21 days. e, f Tumor growth curves for A375 melanoma (n = 6) (e), and patient-derived xenograft (PDX) of melanoma (n = 5) (f) bearing mice treated with the indicated compounds once daily (5 days on, 2 days off) for 21 days. For d–f, NHWD-870 used is NHWD-870-HCl synthesized using Suzuki coupling route. Data are presented as mean ± SEM in (a, b, d, f) and mean + SEM in (c, e). p values were calculated using two-tailed, unpaired t tests. *p < 0.05; **p < 0.01; ***p < 0.001. Source data are provided as a Source Data file.
4–6 weeks old female BALB/c nude mice were used for most experiments, with the exception of 6–8 weeks old female C57BL/6 mice were used for B16F10 experiments, and 6–8 weeks old male BALB/c nude mice and SD rats were used for pharmacokinetic experiments. All animals were purchased from Shanghai SIPPR-Bk Lab Animal Co., Ltd. All animals were housed under a regimen of 12 h light/12 h dark cycles and specific pathogen-free conditions. 5×10^6 NCI-H526, ES-2, MDA-MB231, A2780, A375, B16F10, and TMD-8 cells (0.1 ml) were injected subcutaneously into female nude mice. The melanoma patient-derived xenograft model was derived from a human melanoma sample (BRAF, NARS and NF1 wild type, and p53 mutant) removed from a patient in Xiangya Hospital. Surgically removed tumor fragments were implanted subcutaneously into female NSG mice. When the tumors grew to ~1000 mm^3, they were harvested and cryopreserved or immediately re-implanted for expansion or experiments. Mouse body weight and tumor sizes were measured every 3 days. Once the tumors grew to 150–200 mm^3, mice were treated with the compounds as described in the Figures. 1 × 10^6 A2780 cells (1 ml) were injected into the abdominal cavity of nude mice. Ascitic volume and tumor weight were measured by an electronic balance. All the procedures were evaluated and approved by the Institutional Animal Care and Use Committee of Central South University and Yale University.

TAMs = test: Transwell co-culture of pretreated A2780 cells and TAMs with CSF1 or anti-CSF1R antibodies; assay type: cell-based, mouse; conditions: co-culture with pretreated A2780 cells, MCSF-1 10ng/ml where added
Experimental: Fig. 6 CSF1/CSF1R signaling is critical for the tumor inhibitory effects of NHWD-870 and CSF1 induced ovarian cancer growth depends on macrophages. a Number of TAMs after treatment with the indicated concentration of CSF1 for 48 h. Data are presented as mean ± SEM from three independent experiments. b–d Schematics of the experiments (b). A2780 cells (pre-treated with DMSO or 100 nM NHWD-870 for 48 h) were seeded into the top chamber (transwell size: 0.4 μm), and TAMs (Mac, 40,000 cells per 24-well) in medium with PBS or 10 ng/ml CSF1 (c), or 50 ng/ml IgG or anti-CSF1R antibodies (d), were seeded into the bottom chamber. Shown are quantification of TAMs (c, d). Data are presented as mean ± SEM from three independent experiments. e Representative western blot analysis of A2780 cells stably transfected with CSF1 or empty vector (EV). Selected from three independent experiments. f Schematics of the animal experiments using an orthotopic mouse OC model, established by intraperitoneally injecting 1 × 10^6 (g–j) or 2 × 10^6 (k–m) human A2780 cells overexpressing CSF1 or control into female recipient nude mice. Mice were then treated with/without liposomal clodronate (LC) for 45 days (g–j) or treated with/without NHWD-870 (PO, QD, 3 mg/kg) for 37 days (k–m). g Increased mouse body weight was measured at the indicated time points (day 0-45 after LC treatment). h–j Net tumor weight (h), ascitic fluid volumes (i) tumor implantations in peritoneum, omentum and pevic cavity (j) were measured at day 45 from LC treatment. k–m Net tumor weight (k), ascitic fluid volumes (l) tumor implantations in peritoneum, omentum and pevic cavity (m) were measured at day 37 after NHWD-870 treatment. For g–m, data are presented as mean ± SEM from five different mice. p values were calculated using two-tailed, unpaired t tests in this figure. n.s, not significant; *p < 0.05; **p < 0.01; and ***p < 0.001. Source data are provided as a Source Data file.
CD45^+CD11b^+F4/80^+ TAMs were isolated from peritoneal metastasis of A2780 tumor-bearing mice and cultured in RPMI-1640 supplemented with 10% FBS, 1% penicillin/streptomycin, and 0–50 ng/ml CSF1 (R&D Systems) as indicated according to standard protocols. In the cancer cell-macrophage co-culture experiments, CSF1 was not added. In the transwell (Corning, pore size, 0.4 μm) co-culture experiments, tumor cells were placed into the upper chamber, and TAMs were seeded into the lower chamber.

`Cc1nnn(C)c1-c1cnc2c3c4cnn(C)c4ccc3n([C@H](c3ccccc3)C3CCOCC3)c2c1` [NHWD-870] was tested, and the “Clone Number (clonogenic assay)” value (ES-2 cells) was 146 and 155 and 103 and 98 and 133, the “effect on tumor growth” value (B16F10 mouse melanoma) was “very strong tumor inhibitive effects” and the “Number of TAMs (Fig.6c)” value (TAMs; time 0) was 5. The “Number of TAMs (Fig.6c)” value (TAMs; time 24) was 5.5 and 5.2 and 6.2, the “Number of TAMs (Fig.6c)” value (TAMs; time 48) was 6.8 and 6.3 and 7.4 and the “Number of TAMs (Fig.6c)” value (TAMs; time 72) was 8.9 and 9.5 and 8.5.
